According to US11377442B2, “Small molecule agonists and antagonists of NR2F6 activity” (ZANDER THERAPEUTICS, INC., priority 2016, dated 2022):

Assays:
Assay type in all cases: cell-based
[1] = test system: Renilla; assay: Renilla signal in NR2F6 agonist screening, cmpd/DMSO; settings: for fold induction at 2 µM / fold induction at 10 µM / fold induction at 40 µM: Renilla, Table 14, read-out: Renilla F4, cmpd/DMSO (mean)
[2] = target: T1, NR2F6 (Homo sapiens, UniProt P10588); assay: NR2F6 agonist screening, Firefly signal cmpd/DMSO; settings: for Firefly F4, cmpd/DMSO (mean): Table 14; for activity (in words): screening result; for Firefly/Renilla (NR2F6 stable, clone F4): ratio Firefly/Renilla; for Firefly, NR2F6 stable (clone F4)/pGL4: ratio of Firefly in NR2F6 stable clone F4 to pGL4
T1 construct: expressed in transfected cells; also transient transfection
T1 sequence (P10588 1-404): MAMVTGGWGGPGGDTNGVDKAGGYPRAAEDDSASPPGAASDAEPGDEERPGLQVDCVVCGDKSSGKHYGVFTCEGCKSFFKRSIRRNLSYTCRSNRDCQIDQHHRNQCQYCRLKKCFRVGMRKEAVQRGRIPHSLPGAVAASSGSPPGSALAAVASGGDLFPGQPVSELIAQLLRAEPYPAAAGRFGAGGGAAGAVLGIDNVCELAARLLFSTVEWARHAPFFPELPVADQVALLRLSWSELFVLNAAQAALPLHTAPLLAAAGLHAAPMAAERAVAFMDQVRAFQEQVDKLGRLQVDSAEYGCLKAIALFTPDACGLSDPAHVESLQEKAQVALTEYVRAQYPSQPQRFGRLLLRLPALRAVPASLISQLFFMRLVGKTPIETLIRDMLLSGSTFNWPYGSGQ

[3] = test system: HEK293 pGL4; assay: Firefly_pGL signal, cmpd/DMSO (pGL4 control cells); settings: Homo sapiens, HEK293, Table 14, read-out: Firefly pGL4, cmpd/DMSO (mean)
[4] = C11 analogs follow set (Tables 2-10)

| Firefly F4, cmpd/DMSO (mean) ([2]; 2 uM) | Firefly F4, cmpd/DMSO (mean) ([2]; 10 uM) | Firefly F4, cmpd/DMSO (mean) ([2]; 40 uM) | Firefly, cmpd/DMSO repeat 1 [2, 4] | Firefly, cmpd/DMSO repeat 2 [2, 4] | SMILES | fold induction at 2 µM ([1]; 2 uM) | fold induction at 10 µM ([1]; 10 uM) | fold induction at 40 µM ([1]; 40 uM) | fold induction at 2 µM [3] | fold induction at 10 µM [3] | fold induction at 40 µM [3] | also measured |
| --- | --- | --- | --- | --- | --- | --- | --- | --- | --- | --- | --- | --- |
| – | – | – | – | – | Cc1ccc(NC(=O)c2n[nH]c3c2CC(C)CC3)cc1C (stereo not shown) [Compound Z96] | – | – | – | – | – | – | NR2F6_full (stable, clone F4), cmpd/DMSO Renilla ([1]; 2 uM): 1.3; NR2F6_full (transient), cmpd/DMSO Renilla ([1]; 2 uM): 1.0; NR2F6_full (stable, clone F4), cmpd/DMSO Renilla ([1]; 10 uM): 1.2; NR2F6_full (transient), cmpd/DMSO Renilla ([1]; 10 uM): 1.0; NR2F6_full (stable, clone F4), cmpd/DMSO Renilla ([1]; 40 uM): 1.2; NR2F6_full (transient), cmpd/DMSO Renilla ([1]; 40 uM): 0.9; NR2F6_full (stable, clone F4), cmpd/DMSO Firefly ([2]; 2 uM): 2.9; NR2F6_full (transient), cmpd/DMSO Firefly ([2]; 2 uM): 2.4; NR2F6_full (stable, clone F4), cmpd/DMSO Firefly ([2]; 10 uM): 2.6; NR2F6_full (transient), cmpd/DMSO Firefly ([2]; 10 uM): 2.3; NR2F6_full (stable, clone F4), cmpd/DMSO Firefly ([2]; 40 uM): 2.6; NR2F6_full (transient), cmpd/DMSO Firefly ([2]; 40 uM): 2.4 |
| 1.1 | 0.8 | 2.0 | – | – | Cc1cc(C)n2nc(CNS(=O)(=O)c3c(F)c(F)c(F)c(F)c3F)nc2n1 [Compound Z55] | 0.8 | 0.3 | 0.1 | 0.8 | 0.7 | 2.3 | activity (in words) [2]: particularly good activity |
| 0.7 | 0.5 | 0.7 | – | – | CCOC(=O)c1cnc2c(C)cc(C)cc2c1NCc1ccccc1 [Compound Z74] | 0.8 | 0.2 | 0.3 | 0.7 | 0.6 | 0.7 | – |
| 2.4 | 0.7 | 0.4 | – | – | COC(=O)c1cnc2c(C)cc(C)cc2c1NCCCN(C)C [Compound Z81] | 1.1 | 0.3 | 0.3 | 1.4 | 0.9 | 0.7 | – |
| 1.0 | 1.1 | 1.3 | – | – | Cc1cc(C)n2nc(CNS(=O)(=O)c3ccc(Cl)cc3)nc2n1 [Compound Z91] | 1.1 | 1.1 | 0.8 | 1 | 1 | 1.1 | – |
| 0.8 | 1.6 | 0.6 | – | – | CCOC(=O)c1cnc2c(C)cc(C)cc2c1NCCCN(C)C [Compound Z54] | 0.7 | 0.3 | 0.2 | 1.1 | 1.9 | 0.8 | activity (in words) [2]: particularly good activity |
| – | – | – | – | – | COc1ccc(-c2noc(Cn3ncccc3=O)n2)cc1 [Compound Z97] | – | – | – | – | – | – | NR2F6_full (stable, clone F4), cmpd/DMSO Renilla ([1]; 2 uM): 1.1; NR2F6_full (transient), cmpd/DMSO Renilla ([1]; 2 uM): 1.0; NR2F6_full (stable, clone F4), cmpd/DMSO Renilla ([1]; 10 uM): 1.1; NR2F6_full (transient), cmpd/DMSO Renilla ([1]; 10 uM): 1.1; NR2F6_full (stable, clone F4), cmpd/DMSO Renilla ([1]; 40 uM): 1.2; NR2F6_full (transient), cmpd/DMSO Renilla ([1]; 40 uM): 1.1; Firefly, cmpd/DMSO (mean) [2]: 2.1; NR2F6_full (stable, clone F4), cmpd/DMSO Firefly ([2]; 2 uM): 2.3; NR2F6_full (transient), cmpd/DMSO Firefly ([2]; 2 uM): 2.4; NR2F6_full (stable, clone F4), cmpd/DMSO Firefly ([2]; 10 uM): 2.2; NR2F6_full (transient), cmpd/DMSO Firefly ([2]; 10 uM): 2.8; NR2F6_full (stable, clone F4), cmpd/DMSO Firefly ([2]; 40 uM): 1.5; NR2F6_full (transient), cmpd/DMSO Firefly ([2]; 40 uM): 2.3 |
| – | – | – | 1.4 | 1.3 | O=c1oc2ccccc2cc1S(=O)(=O)c1ccc(Cl)c(Cl)c1 [Compound C106] | – | – | – | – | – | – | – |
| – | – | – | – | – | COc1cccc2cc(S(=O)(=O)c3ccc(Br)cc3)c(=O)oc12 [Compound C233] | – | – | – | – | – | – | Firefly, cmpd/DMSO repeat 1 ([2]; Table 9): 2.8; Firefly, cmpd/DMSO repeat 2 ([2]; Table 9): 2.1 |
| – | – | – | 8.6 | 12.8 | O=c1oc2ccc(Cl)cc2cc1S(=O)(=O)c1cccc(Cl)c1 [Compound C191] | – | – | – | – | – | – | – |
| – | – | – | 45.1 | 44.8 | COc1cccc(NC(=O)c2ccc3oc(=O)c(S(=O)(=O)c4ccc(C)cc4)cc3c2)c1 [Compound C126] | – | – | – | – | – | – | Firefly/Renilla (NR2F6 stable, clone F4) ([2]; Table 13): 1.0; Firefly, NR2F6 stable (clone F4)/pGL4 ([2]; Table 13): 9.9; Firefly, cmpd/DMSO repeat 1 ([2]; Table 13): 45.1; Firefly, cmpd/DMSO repeat 2 ([2]; Table 13): 44.8 |
| – | – | – | 36.7 | 56.2 | COc1cccc(NC(=O)c2ccc3oc(=O)c(S(=O)(=O)c4ccc(F)cc4)cc3c2)c1 [Compound C127] | – | – | – | – | – | – | Firefly/Renilla (NR2F6 stable, clone F4) ([2]; Table 13): 1.1; Firefly, NR2F6 stable (clone F4)/pGL4 ([2]; Table 13): 5.7; Firefly, cmpd/DMSO repeat 1 ([2]; Table 13): 36.7; Firefly, cmpd/DMSO repeat 2 ([2]; Table 13): 56.2 |
| – | – | – | 22.3 | 20.0 | COC(=O)c1ccc2oc(=O)c(S(=O)(=O)c3ccc(F)cc3)cc2c1 [Compound C14] | – | – | – | – | – | – | Firefly/Renilla (NR2F6 stable, clone F4) ([2]; Table 13): 1.5; Firefly, NR2F6 stable (clone F4)/pGL4 ([2]; Table 13): 7.6; Firefly, cmpd/DMSO repeat 1 ([2]; Table 13): 22.3; Firefly, cmpd/DMSO repeat 2 ([2]; Table 13): 20.0 |
| – | – | – | 38.1 | 31.9 | Cc1ccc(S(=O)(=O)c2cc3cc(C(=O)Nc4cccc(C)c4C)ccc3oc2=O)cc1 [Compound C134] | – | – | – | – | – | – | Firefly/Renilla (NR2F6 stable, clone F4) ([2]; Table 12): 1.8; Firefly, NR2F6 stable (clone F4)/pGL4 ([2]; Table 12): 7.7; Firefly, cmpd/DMSO repeat 1 ([2]; Table 12): 38.1; Firefly, cmpd/DMSO repeat 2 ([2]; Table 12): 31.9 |
| – | – | – | 6.9 | 6.0 | CC(C)(C)c1ccc(S(=O)(=O)c2cc3cc(Cl)ccc3oc2=O)cc1 [Compound C205] | – | – | – | – | – | – | – |
| – | – | – | – | – | COc1cccc2cc(S(=O)(=O)c3ccc(C)cc3)c(=O)oc12 [Compound C231] | – | – | – | – | – | – | Firefly, cmpd/DMSO repeat 1 ([2]; Table 9): 0.7; Firefly, cmpd/DMSO repeat 2 ([2]; Table 9): 0.9 |
